Patent publication US20240238445A1, “INHIBITORS AND USES THEREOF” (NEURACLE SCIENCE CO., LTD., priority 2021, published 2024)
Square brackets hold non-standard residues; d marks the D form. Ends that are not written are not given here.

Test system: hippocampal neurons co-treated with toxic Aβ oligomer
Assay: Amyloid beta-induced synapse loss in mouse primary hippocampal neurons
Type: cell-based
Settings: 6.6 nM
Description: Alzheimer's disease (AD) is tightly associated with the dysmetabolism of amyloid-β (Aβ). To begin assessing whether the polypeptides provided herein (i.e., comprising the FAM19A5 binding domain of LRRC4 protein family members) could have any therapeutic effects on AD, the effect of various FB-21 peptide fragments described herein on the deformation of synapse induced by toxic Aβ oligomer and following structural recovery was assessed. Specifically, the following FB-21 peptide fragments were tested: FB-21, FB-JM-31 and FB-BBB-39 (see Example 10).
Aβ42 (#20276) peptide was purchased from AnaSpec (Fremont, USA). […]
Hippocampal neurons were treated with 6.6 nM FB-21, 6.6 nM of FB-13-JM and 6.6 nM of FB-13-BBBX2 at 14, 17 and 20 DIV to determine the level of synaptogenesis at 21 DIV by immunostaining SYP, a presynapse marker protein and PSD95, a postsynapse marker protein. To quantify fluorescence intensity for SYN and PSD95 and number of colocalized voxels between SYN and PSD95 signals, z-stack confocal images of 3 μm in depth were converted to 3D images using IMARIS software (IMARIS9.0, Bitplane AG, Zurich, Switzerland). The “Surface tool” of the IMARIS software was used to exclude all the signals detected in neuronal cell bodies, and number of colocalized voxels between SYN and PSD95 signals in neurites were calculated using the “Coloc tool”. […]

“nYTYFTTVTVETLETQPGEEALDEVMKTTKa ([dN]YTYFTTVTVETLETQPGEEALDEVMKTTK[dA]; also: terminal modifications n and a on first and last residues) [FB peptide with JM sequence]” was tested. Which “colocalized voxels for PSD95 and synaptophysin” value did it give?
Its value is “significant increase in colocalized voxels”.
